Measurements published in PMC9898036, “VIP152 is a selective CDK9 inhibitor with pre-clinical in vitro and in vivo efficacy in chronic lymphocytic leukemia” (Leukemia, 2022).

Experiments:
[1] = molecular target: GSK3β (Homo sapiens, UniProt P49841); assay: NanoBRET target engagement assay (HEK293); format: cell-based
[2] = system: OSU-CLL; assay: MTS proliferation assay; format: cell-based; conditions: Homo sapiens, 24, 48, and 72 h
[3] = system: C57BL/6 J mice engrafted with Eµ-MTCP1 splenocytes; assay: Eµ-MTCP1 adoptive transfer murine CLL model; format: in vivo, mouse; conditions: 12.5mg/kg tail vein injection, every week
Procedure: All animal studies were carried out under protocols approved by The Ohio State University Institutional Animal Care and Use Committee (IACUC). Previously, 1 × 10^6 splenocytes from Eµ-MTCP1 mice, which recently were described to mimic human CLL, were resuspended in PBS and injected via tail vein into male C57BL/6 J from The Jackson Laboratory. Mice were monitored for development of peripheral disease by flow cytometry, measuring the percentage of CD5^+/CD19^+ cells in peripheral blood. Complete in vivo methods may be found in the supplementary material.
In vitro systems generally lack the full microenvironment that can lead to tumor cell resistance and survival. Next, we sought to assess the in vivo efficacy of VIP152 to better evaluate its potential clinical utility in patients with CLL. To accomplish this we used a novel transgenic model of CLL (Eµ-MTCP1 model) developed recently by our group that is characterized by CD5^+/CD19^+ and B220^Dim expansion in the blood. Splenocytes from diseased Eµ-MTCP1 mice were serially engrafted via tail vein injection and monitored for leukemia via weekly flow cytometry (Fig. 5A). Mice were randomized to vehicle versus VIP152 at the time blood disease was evident and treated every week until endpoint. […] Mice in the VIP152 treatment group had improved overall survival compared with vehicle with a median survival of 46 days vs 32 days respectively (Fig. 5D – p < 0.005). Following enrollment two mice had reduction in disease that was sustained below 10% for the duration of study and these mice were censored after 100 days upon which treatment was ceased. Two months following treatment cessation these mice succumbed to likely illness with evident splenomegaly. […]
Transcriptase. cDNA was immediately taken for qPCR using TaqMan Fast Advanced Master Mix using […]
Upon reaching 80% disease, these mice were euthanized and spleens were harvested. Splenocytes from a single donor were then used for the studies described here. 1 x 10^6 splenocytes were again injected via tail vein into male C57BL/6J mice and monitored via flow cytometry as previously described for development of disease as defined by ≥10% CD45+/CD5+/CD19+32. Upon reaching 10% disease, mice were randomly enrolled into one of two treatment arms: tail vein injection of 12.5mg/kg VIP152 dissolved in (30/10/60 v/v/v PEG400/EtOH/0.5% Tween-80 in water) or vehicle control.
Flow Cytometry analysis of blood […]
Anti-Mouse CD45R/B220 – cat. […] Data were analyzed using Kaluza Analysis Software (Beckman-Coulter v2.1).
Mass spectra from all samples (N = 12) were converted to mzML with ProteoWizard and OpenMS (v 2.5.0)30,31. Features from converted files were detected with Biosaur and searched on the OpenMS platform with […]

[4] = molecular target: Dopamine D4.2 (Homo sapiens, UniProt P21917, DEL265-296); assay: Eurofins Diversity Panel; format: binding; conditions: hum, Conc. 10 μM
Dopamine D4.2, sequence (P21917 with tags, fused parts or gaps DEL265-296): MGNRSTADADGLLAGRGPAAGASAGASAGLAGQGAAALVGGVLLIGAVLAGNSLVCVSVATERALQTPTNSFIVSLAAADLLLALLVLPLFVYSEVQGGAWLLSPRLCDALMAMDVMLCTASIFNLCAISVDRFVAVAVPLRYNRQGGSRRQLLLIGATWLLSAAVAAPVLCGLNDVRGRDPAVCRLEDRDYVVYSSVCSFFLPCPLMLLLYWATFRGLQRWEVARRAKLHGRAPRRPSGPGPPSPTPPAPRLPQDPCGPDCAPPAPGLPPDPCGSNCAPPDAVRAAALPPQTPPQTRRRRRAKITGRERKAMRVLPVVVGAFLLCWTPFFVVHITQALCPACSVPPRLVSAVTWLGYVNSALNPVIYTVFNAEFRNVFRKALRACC

[5] = system: Glutamate, NMDA, Phencyclidine; assay: Eurofins Diversity Panel; format: binding; conditions: rat, Conc. 10 μM
[6] = molecular target: PKNB(M.tuberculosis) (Mycobacterium tuberculosis, UniProt P9WI81); assay: DiscoverX KINOMEscan kinase profiling: PKNB(M.tuberculosis); format: binding; conditions: PKNB(M.tuberculosis) (Entrez pknB); 100 nM; read-out: Percent Control
[7] = molecular target: ROCK1 (Homo sapiens, UniProt Q13464); assay: KINOMEscan: ROCK1; format: binding; conditions: 100 nM, read-out: Percent Control
[8] = molecular target: RPS6KA5(Kin.Dom.2-C-terminal) (Homo sapiens, UniProt O75582); assay: KINOMEscan: RPS6KA5(Kin.Dom.2-C-terminal); format: binding; conditions: 100 nM, read-out: Percent Control
RPS6KA5(Kin.Dom.2-C-terminal), sequence (O75582 388-802 limits assumed): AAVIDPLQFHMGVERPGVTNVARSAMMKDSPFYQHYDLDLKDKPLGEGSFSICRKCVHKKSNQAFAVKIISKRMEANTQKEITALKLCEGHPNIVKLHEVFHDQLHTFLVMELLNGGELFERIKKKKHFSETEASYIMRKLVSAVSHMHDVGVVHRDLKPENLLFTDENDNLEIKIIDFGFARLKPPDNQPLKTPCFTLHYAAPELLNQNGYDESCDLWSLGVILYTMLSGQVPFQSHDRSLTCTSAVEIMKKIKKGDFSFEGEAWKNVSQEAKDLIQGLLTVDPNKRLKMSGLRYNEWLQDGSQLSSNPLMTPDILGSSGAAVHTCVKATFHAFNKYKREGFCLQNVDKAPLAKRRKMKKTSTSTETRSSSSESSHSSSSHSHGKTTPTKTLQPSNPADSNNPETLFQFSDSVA

[9] = molecular target: TGFBR2 (Homo sapiens, UniProt P37173); assay: KINOMEscan: TGFBR2; format: binding; conditions: 100 nM, read-out: Percent Control
[10] = molecular target: TRKA (Homo sapiens, UniProt P04629); assay: KINOMEscan: TRKA; format: binding; conditions: 100 nM, read-out: Percent Control
[11] = molecular target: TRKB (Homo sapiens, UniProt Q16620); assay: KINOMEscan: TRKB; format: binding; conditions: 100 nM, read-out: Percent Control
[12] = molecular target: AURKB (Homo sapiens, UniProt Q96GD4); assay: KINOMEscan: AURKB; format: binding; conditions: 1000 nM, read-out: Percent Control
[13] = molecular target: BRAF (Homo sapiens, UniProt P15056); assay: KINOMEscan: BRAF; format: binding; conditions: 1000 nM, read-out: Percent Control
BRAF, sequence (P15056 whole entry): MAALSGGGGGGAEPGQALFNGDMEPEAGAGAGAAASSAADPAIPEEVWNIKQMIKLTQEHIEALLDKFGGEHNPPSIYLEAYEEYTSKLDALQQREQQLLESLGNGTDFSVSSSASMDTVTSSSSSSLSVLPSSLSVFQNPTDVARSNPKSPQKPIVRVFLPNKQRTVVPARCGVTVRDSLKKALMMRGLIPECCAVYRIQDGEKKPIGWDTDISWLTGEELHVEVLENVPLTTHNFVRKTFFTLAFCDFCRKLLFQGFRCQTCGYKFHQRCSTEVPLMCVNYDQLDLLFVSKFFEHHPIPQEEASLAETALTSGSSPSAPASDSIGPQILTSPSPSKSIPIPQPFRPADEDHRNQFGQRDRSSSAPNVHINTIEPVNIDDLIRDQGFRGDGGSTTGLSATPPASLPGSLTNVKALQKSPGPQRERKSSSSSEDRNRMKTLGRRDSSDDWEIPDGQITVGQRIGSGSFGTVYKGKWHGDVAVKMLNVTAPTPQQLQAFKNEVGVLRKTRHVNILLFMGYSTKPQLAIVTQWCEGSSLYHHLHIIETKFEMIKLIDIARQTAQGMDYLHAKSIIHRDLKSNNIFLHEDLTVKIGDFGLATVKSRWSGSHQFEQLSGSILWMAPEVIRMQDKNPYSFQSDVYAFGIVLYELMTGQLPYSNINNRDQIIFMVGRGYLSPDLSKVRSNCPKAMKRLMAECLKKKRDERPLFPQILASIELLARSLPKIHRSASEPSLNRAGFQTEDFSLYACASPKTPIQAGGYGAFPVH

[14] = molecular target: CDC2L5 (Homo sapiens, UniProt Q14004); assay: KINOMEscan: CDC2L5; format: binding; conditions: 1000 nM, read-out: Percent Control
[15] = molecular target: DDR2 (Homo sapiens, UniProt Q16832); assay: KINOMEscan: DDR2; format: binding; conditions: 1000 nM, read-out: Percent Control
[16] = molecular target: FGFR1 (Homo sapiens, UniProt P11362); assay: KINOMEscan: FGFR1; format: binding; conditions: 1000 nM, read-out: Percent Control
FGFR1, sequence (P11362 22-822): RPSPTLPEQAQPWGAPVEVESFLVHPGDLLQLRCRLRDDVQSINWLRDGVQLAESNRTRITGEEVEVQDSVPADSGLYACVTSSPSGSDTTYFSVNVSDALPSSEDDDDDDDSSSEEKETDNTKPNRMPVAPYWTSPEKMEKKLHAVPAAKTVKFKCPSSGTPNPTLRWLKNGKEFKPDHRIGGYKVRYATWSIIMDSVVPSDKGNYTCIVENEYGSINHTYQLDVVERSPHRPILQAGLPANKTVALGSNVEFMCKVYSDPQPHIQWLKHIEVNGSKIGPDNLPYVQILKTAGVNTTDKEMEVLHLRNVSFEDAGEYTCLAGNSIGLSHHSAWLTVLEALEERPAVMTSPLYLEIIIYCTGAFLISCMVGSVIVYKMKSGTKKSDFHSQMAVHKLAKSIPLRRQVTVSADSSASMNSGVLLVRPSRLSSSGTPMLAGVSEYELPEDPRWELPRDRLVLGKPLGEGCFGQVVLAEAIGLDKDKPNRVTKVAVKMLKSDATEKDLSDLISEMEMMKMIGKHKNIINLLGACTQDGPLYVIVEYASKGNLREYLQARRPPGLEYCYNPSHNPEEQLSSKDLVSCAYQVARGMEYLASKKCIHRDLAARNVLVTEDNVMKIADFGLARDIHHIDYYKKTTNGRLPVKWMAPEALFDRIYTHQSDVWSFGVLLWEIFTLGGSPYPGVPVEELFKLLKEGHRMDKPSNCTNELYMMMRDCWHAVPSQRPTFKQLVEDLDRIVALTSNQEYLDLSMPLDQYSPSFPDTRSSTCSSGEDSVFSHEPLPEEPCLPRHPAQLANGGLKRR

[17] = molecular target: GRK2 (Homo sapiens, UniProt P25098); assay: KINOMEscan: GRK2; format: binding; conditions: 1000 nM, read-out: Percent Control
GRK2, sequence (P25098 whole entry): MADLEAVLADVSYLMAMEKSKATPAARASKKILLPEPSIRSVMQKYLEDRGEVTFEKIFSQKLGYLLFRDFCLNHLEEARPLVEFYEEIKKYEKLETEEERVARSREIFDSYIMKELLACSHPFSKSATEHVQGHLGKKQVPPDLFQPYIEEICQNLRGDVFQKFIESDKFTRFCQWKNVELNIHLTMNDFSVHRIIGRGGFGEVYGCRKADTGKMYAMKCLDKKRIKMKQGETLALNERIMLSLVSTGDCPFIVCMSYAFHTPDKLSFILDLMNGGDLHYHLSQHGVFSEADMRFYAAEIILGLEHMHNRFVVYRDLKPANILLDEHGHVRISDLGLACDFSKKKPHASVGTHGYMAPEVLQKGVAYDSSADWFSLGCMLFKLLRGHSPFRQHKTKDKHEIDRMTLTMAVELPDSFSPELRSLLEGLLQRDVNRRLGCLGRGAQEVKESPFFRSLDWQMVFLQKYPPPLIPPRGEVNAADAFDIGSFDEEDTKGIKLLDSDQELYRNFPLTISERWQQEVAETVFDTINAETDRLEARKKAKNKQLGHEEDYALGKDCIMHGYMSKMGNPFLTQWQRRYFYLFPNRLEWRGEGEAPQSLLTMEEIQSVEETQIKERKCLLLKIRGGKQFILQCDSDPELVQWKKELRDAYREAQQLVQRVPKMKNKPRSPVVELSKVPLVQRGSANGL

[18] = molecular target: IKK-epsilon (Homo sapiens, UniProt Q14164); assay: KINOMEscan: IKK-epsilon; format: binding; conditions: 1000 nM, read-out: Percent Control
[19] = molecular target: KIT-autoinhibited (Homo sapiens, UniProt P10721); assay: KINOMEscan: KIT-autoinhibited; format: binding; conditions: 1000 nM, read-out: Percent Control
[20] = molecular target: MAPKAPK5 (Homo sapiens, UniProt Q8IW41); assay: KINOMEscan: MAPKAPK5; format: binding; conditions: 1000 nM, read-out: Percent Control
[21] = molecular target: MAST1 (Homo sapiens, UniProt Q9Y2H9); assay: KINOMEscan: MAST1; format: binding; conditions: 1000 nM, read-out: Percent Control
MAST1, sequence (Q9Y2H9 whole entry): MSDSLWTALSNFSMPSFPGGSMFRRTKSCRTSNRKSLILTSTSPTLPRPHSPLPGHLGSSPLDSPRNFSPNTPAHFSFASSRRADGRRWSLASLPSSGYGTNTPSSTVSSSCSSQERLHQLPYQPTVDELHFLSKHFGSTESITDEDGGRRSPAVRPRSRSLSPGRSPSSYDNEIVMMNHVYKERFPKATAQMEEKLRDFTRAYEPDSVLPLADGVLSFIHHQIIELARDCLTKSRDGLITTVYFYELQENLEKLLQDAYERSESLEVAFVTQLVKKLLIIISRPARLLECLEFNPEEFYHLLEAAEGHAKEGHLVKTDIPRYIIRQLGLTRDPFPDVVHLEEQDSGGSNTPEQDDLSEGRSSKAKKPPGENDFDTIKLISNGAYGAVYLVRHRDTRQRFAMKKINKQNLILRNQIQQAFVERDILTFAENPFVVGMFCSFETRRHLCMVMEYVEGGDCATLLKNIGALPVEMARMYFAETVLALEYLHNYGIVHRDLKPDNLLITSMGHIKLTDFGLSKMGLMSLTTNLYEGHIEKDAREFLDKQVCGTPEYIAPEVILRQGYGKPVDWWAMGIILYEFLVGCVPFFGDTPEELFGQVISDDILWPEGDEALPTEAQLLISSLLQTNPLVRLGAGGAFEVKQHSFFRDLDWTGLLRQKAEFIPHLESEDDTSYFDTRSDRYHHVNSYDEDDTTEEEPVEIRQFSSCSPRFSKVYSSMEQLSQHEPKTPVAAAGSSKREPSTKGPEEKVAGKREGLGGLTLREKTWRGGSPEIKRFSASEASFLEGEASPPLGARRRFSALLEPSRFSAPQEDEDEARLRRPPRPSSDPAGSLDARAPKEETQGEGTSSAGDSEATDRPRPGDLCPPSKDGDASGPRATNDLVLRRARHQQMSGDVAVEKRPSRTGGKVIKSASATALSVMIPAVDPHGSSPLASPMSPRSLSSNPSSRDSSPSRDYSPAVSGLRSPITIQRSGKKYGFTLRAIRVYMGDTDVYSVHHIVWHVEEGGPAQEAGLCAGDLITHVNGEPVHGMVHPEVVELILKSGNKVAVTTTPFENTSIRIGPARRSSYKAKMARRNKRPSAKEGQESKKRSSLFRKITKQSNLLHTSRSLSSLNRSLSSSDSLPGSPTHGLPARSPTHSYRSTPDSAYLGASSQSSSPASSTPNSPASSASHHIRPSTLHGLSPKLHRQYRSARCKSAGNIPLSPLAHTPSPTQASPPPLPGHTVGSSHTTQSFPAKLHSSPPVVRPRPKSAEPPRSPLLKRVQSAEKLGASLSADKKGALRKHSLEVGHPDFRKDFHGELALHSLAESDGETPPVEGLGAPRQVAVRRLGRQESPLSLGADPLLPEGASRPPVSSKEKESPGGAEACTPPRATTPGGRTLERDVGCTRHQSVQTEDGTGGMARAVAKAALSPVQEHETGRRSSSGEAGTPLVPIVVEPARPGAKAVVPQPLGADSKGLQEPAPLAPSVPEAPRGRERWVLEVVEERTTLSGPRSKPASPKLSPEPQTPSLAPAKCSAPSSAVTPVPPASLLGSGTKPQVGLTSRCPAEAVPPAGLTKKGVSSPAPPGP

[22] = molecular target: MST3 (Homo sapiens, UniProt Q9Y6E0); assay: KINOMEscan: MST3; format: binding; conditions: 1000 nM, read-out: Percent Control
MST3, sequence (Q9Y6E0 whole entry): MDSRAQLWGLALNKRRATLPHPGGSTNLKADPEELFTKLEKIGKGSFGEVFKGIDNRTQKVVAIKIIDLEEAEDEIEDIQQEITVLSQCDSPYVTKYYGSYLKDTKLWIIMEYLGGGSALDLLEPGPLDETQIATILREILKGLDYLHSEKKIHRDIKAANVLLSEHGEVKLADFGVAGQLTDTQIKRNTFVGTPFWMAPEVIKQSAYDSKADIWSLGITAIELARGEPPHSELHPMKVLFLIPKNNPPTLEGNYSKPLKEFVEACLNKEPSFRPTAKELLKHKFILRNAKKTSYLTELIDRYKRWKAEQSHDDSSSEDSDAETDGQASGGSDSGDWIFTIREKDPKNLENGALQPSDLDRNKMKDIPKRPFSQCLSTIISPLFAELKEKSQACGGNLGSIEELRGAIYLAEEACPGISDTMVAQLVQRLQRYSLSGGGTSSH

With COc1cc(F)ccc1-c1cc(Nc2cc(CS(C)(=N)=O)ccn2)ncc1F (stereo not shown) [VIP152] the “inhibitory capacity against GSK3β” value [1] was “Inhibits”, the IC50 [2] was roughly 0.1 µM and the weight loss [3] was “did not observe any weight loss”. The median survival ([3]; vehicle 32 days) was 46 days, the “CD5+/CD19+ disease burden in peripheral blood” value ([3]; vs vehicle) was “statistically significantly lower” and the “spleen size and spleen disease burden at endpoint” value ([3]; vs vehicle) was “did not have significantly smaller spleens nor significant decrease in spleen disease burden”. For the same compound, the inhibition at 10 µM [4] was 32%, the “% Inh.” value [5] was 5% and the remaining binding at 0.1 µM [6] was 100%. It also gave a remaining binding at 0.1 µM [7] of 100%, a remaining binding at 0.1 µM [8] of 100% and a remaining binding at 0.1 µM [9] of 100%. It also gave a remaining binding at 0.1 µM [10] of 65%, a remaining binding at 0.1 µM [11] of 100% and a remaining binding at 1 µM [12] of 57%. It also gave a remaining binding at 1 µM [13] of 55%, a remaining binding at 1 µM [14] of 13% and a remaining binding at 1 µM [15] of 27%. It also gave a remaining binding at 1 µM [16] of 83%, a remaining binding at 1 µM [17] of 98% and a remaining binding at 1 µM [18] of 51%. The remaining binding at 1 µM [19] was 100%, the remaining binding at 1 µM [20] was 89% and the remaining binding at 1 µM [21] was 81%. It also gave a remaining binding at 1 µM [22] of 94%.
